The subject of one data set is SGC7901 cells. Nature of the data set: CCK-8 cell viability assay, SGC7901. Format: cell-based. The note with it: Homo sapiens, SGC-7901; CCK-8 assay, 48 h. As for the experimental part: (§1) Cells were seeded and incubated overnight in 96-well plates at a density of 5 × 10^3 cells/well. […] A total of 10 µL CCK-8 were added to each well for additional 1 h and cell viability was measured by CCK-8 assay. Absorbance was measured at 450 nm. The IC50 values were calculated by GraphPad Prism 7 (GraphPad Software Inc., San Diego, CA, USA).
Background: Tetrazolium assays rely on reduction of a dye to a coloured formazan, in cell work by metabolically active cells.

A further data set concerns MRC-5 cells. Put plainly: CCK-8 cell viability assay, normal cells MRC-5. Type of data set: cell-based. Conditions: at a higher concentration (40 µM), 48 h. As for the experimental part:
as §1
(§2) Figure S2. 163N could inhibit autophagy flux. (A) HeLa cells treated with different concentrations of
(§3) II/TUBA was calculated using ImageJ software.
(§4) was examined. The number of GFP-LC3B dots was quantified. Data are presented as mean ± SEM
(§5) was performed to assess cell viability. […]

The test system of data set [1] is proteolytic activity of lysosomes in HeLa cells. Nature of the data set: DQ-BSA Red assay. Conditions: 6 h, 163N 5 or 10 µM, Baf 0.5 µM, E64D 25 µM plus pepstatin A 50 µM. Type of data set: cell-based. As for the experimental part: Figure 5 163N causes lysosome dysfunction. […] . (C) HeLa cells were treated with or without 163N (10 µM) for 6 h, followed by immunostaining using cathepsin B and LAMP1 antibody. The colocalization of cathepsin B and LAMP1 was measured.
DQ-BSA Red assay: cells were incubated with 10 µg/mL DQ-BSA Red in EBSS medium at 37° for 1.5 h, and then new medium with or without the indicated compounds were added for another 4 or 6 h, and then fluorescence microscopy was used for detecting the intensity of red fluorescent.
Supplementary Materials: New Anti-Cancer Strategy
to Suppress Colorectal Cancer Growth Through
Inhibition of ATG4B and Lysosome Function
Figure S1. Compounds with a 6-methylpyrimidine-2,4-diamine structure could cause lysosome
inhibition. (A) The structure of the representative lysosome inhibitors. (B) GFP-LC3B HeLa cells were
treated with Baf (0.5 µM) or 5 µM of different lysosome inhibitors for 2 h, then LysoTracker Red (LTR,
25 ng/mL) was used and the relative LTR fluorescent intensity was measured. (C) HeLa cells were
firstly treated with 10 µg/mL DQ-BSA for 1.5 h, and then treated with Rap (1 µM), Baf (0.5 µM), E64D
(25 µM) plus pepstatin A (50 µM), or 5 µM of different lysosome inhibitors for 4 h.
Cancers 2020, 12, x; www.mdpi.com/journal/ cancers […]

In a further data set the test system is HCT116 xenograft. Put plainly: HCT116 mouse xenograft model. Format: in vivo, mice. As for the experimental part: Figure 7 163N inhibits tumor growth in a HCT116 mouse xenograft model. (A) HCT116 cells ([…]) were injected subcutaneously into the right flank of the immunodeficient nu/nu female mice. Seven days after tumor cell implantation, mice with palpable tumors were divided randomly into two groups and injected intraperitoneal on Monday, Wednesday, and Friday with either corn oil vehicle or 163N (50 mg/kg). Tumor volumes were calculated by the length and width measured by Vernier calipers every 2 d. (B) Body weight changes of mice during 28 d of exposure. (C) Tumor tissues were sectioned and subjected to H&E staining and immunohistochemistry for evaluating histological morphology, and expression of LC3B and SQSTM1. Scale bar: 50 µm. (D) TEM was used to detect the ultrastructure of the representative tumor tissues. Red arrows represent normal autolysosome structures. Data are presented as mean ± SEM. ** p < 0.01 vs VC.
The animal experimental procedures were approved by the Research Ethics Committee of Sun Yat-sen University (Guangzhou, China), ethic code: SYSU-IACUC-2018-000134. Four-week-old immunodeficient mice (nu/nu, female) were raised in a pathogen-free environment in the Experimental Animal Center of Sun Yat-sen University. Human colorectal cancer HCT116 cells (3 × 10^6) were injected subcutaneously into the right flank of the animals. Seven days after tumor cell implantation, mice with palpable tumors were divided randomly into two groups and injected intraperitoneal on Monday, Wednesday, and Friday of the following treatments: (1) vehicle control (corn oil); (2) 163N (50 mg/kg body weight) dissolved in corn oil. Tumors were measured using calipers and the tumor volume (mm^3) was calculated as follows: V = (L × W2)/2, L and W represents tumor length and width, respectively. At the end of the experiment (5 weeks after tumor implantation), the mice were given 200 µL of pentobarbital sodium (1%) by i.p. 30 min before sacrifice, tumors and organs were collected and weighed.

The test system of the next data set is L02 cells. Put plainly: CCK-8 cell viability assay, normal cells L02. Type of data set: cell-based. The note with it: at a higher concentration (40 µM), 48 h. As for the experimental part: as §1, §2, §3, §4, §5
Another data set addresses ATG4A (Homo sapiens, UniProt Q8WYN0). Put plainly: FRET-based assay for ATG4A activity.
The test system of another data set is LC3-II in HeLa cells. Put plainly: western blot for LC3 conversion, HeLa. The note with it: 1, 5, 10, 20 µM for 6 h; 10 µM time course. Type of data set: cell-based. As for the experimental part: as §2, §3, §4, §5
For another data set, the system named is HeLa cells. Put plainly: CCK-8 cell viability assay, HeLa. Type of data set: cell-based. As for the experimental part: as §1

Sequence of ATG4A (Q8WYN0 whole entry, species assumed): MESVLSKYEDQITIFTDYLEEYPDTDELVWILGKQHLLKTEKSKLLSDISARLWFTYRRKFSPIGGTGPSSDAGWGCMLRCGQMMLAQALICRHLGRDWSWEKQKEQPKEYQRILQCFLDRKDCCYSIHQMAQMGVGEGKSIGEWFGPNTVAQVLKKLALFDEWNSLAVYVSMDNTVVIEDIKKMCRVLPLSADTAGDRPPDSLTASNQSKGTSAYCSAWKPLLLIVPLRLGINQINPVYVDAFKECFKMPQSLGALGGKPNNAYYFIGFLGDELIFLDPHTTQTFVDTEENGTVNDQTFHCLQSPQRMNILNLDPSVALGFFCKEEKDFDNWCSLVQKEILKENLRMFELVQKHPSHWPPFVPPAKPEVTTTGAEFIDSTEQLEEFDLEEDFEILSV
Protocol for ATG4A: A FRET-based assay for detecting ATG4B activity was carried out as described [45].

For orientation: IC50 means the concentration that gives 50% inhibition. A low value points to greater potency. For the compound `COc1ccc(Nc2cc(C)nc(Nc3ccc(-c4cc5ccccc5o4)cc3)n2)cc1` [Compound 163N], the IC50 was 21.2 µM with SGC7901 cells; 53.7 µM against ATG4A; 7.06 µM in the data set on HeLa cells (Homo sapiens, HeLa, CCK-8 assay, 48 h). The “cell viability of normal cells MRC-5” value in the data set with MRC-5 cells is listed as “reduce the cell viability”. In addition, the “dequenching of DQ-BSA (proteolytic activity of lysosome)” value in data set [1] is listed as “nearly no dequenching of DQ-BSA”. Besides, the “LC3B and SQSTM1 in tumor tissue by immunohistochemistry” value in the data set on HCT116 xenograft (50 mg/kg intraperitoneal) is “increased levels of LC3B and SQSTM1”. In addition, in the data set with HCT116 xenograft (50 mg/kg intraperitoneal Mon/Wed/Fri, nu/nu female mice, vs vehicle), the tumor growth result is on record as “less prominent”. Also, the body weight result in the data set on HCT116 xenograft (50 mg/kg intraperitoneal, 28 d, vs vehicle) was “no significant changes in body weight”. For the same compound, in the data set on HCT116 xenograft (50 mg/kg intraperitoneal, vs vehicle), the “weight index and morphology of heart, liver, spleen, lung, kidney” value is recorded as “no significant changes in weight index”. The “cell viability of normal cells L02” value in the data set with L02 cells was “reduce the cell viability”. Also, in the data set on LC3-II in HeLa cells, the “LC3-II level, HeLa” value was “dose- and time-dependent accumulation of LC3-II”. Also, the “cytotoxicity relative to XOS00163, XOS00201 and XOS00207, HeLa” value with HeLa cells (HeLa cells) was “about five times higher cytotoxicity”.

The values are drawn from PMC7352571, “New Anti-Cancer Strategy to Suppress Colorectal Cancer Growth Through Inhibition of ATG4B and Lysosome Function” (Cancers, 2020).
